Measurements from PubChem BioAssay AID330 (DTP/NCI, 2004).
Values joined by “and” are separate entries in the source; they are usually repeats but may differ in a detail not shown here. Identical values can stand only once. Inconclusive results and toxic doses are left out. The calls were made as follows: active = survival T/C of 150% or more; inactive = T/C below 125% in these data. Square brackets hold non-standard residues; d marks the D form. Peptide text beside a SMILES is read from it. * marks the point of attachment. ξ: configuration not given here. Cbz = O=C(OCc1ccccc1)*; ξT = CC(O)C(N)C(=O)O

System: P388 leukemia ip, CD2F1 mice, survival T/C
Experiment: NCI In Vivo Anticancer Drug Screen. Data for tumor model P388 Leukemia (intraperitoneal) in CD2F1 (CDF1) mice
Settings: endpoint: median survival time, higher = longer survival
How it was run: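 Mice carrying the transplanted tumor received test compound or vehicle. Survival was recorded in each group, and the value is the treated-group measurement divided by that of the vehicle-treated control group.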

[1] = dose: 50.0 mg/kg/injection, schedule: Q01DX005 (ip), vehicle: Klucel (hydroxypropylcellulose) (HPC)
[2] = dose: 100.0 mg/kg/injection, schedule: Q01DX005 (ip), vehicle: Klucel (hydroxypropylcellulose) (HPC)
[3] = dose: 200.0 mg/kg/injection, schedule: Q01DX005 (ip), vehicle: Klucel (hydroxypropylcellulose) (HPC)
[4] = dose: 25.0 mg/kg/injection, schedule: Q01DX005 (ip), vehicle: saline with Tween-80
[5] = dose: 50.0 mg/kg/injection, schedule: Q01DX005 (ip), vehicle: saline with Tween-80
[6] = dose: 100.0 mg/kg/injection, schedule: Q01DX005 (ip), vehicle: saline with Tween-80
[7] = dose: 200.0 mg/kg/injection, schedule: Q01DX005 (ip), vehicle: saline with Tween-80
[8] = dose: 12.5 mg/kg/injection, schedule: Q01DX005 (ip), vehicle: saline with Tween-80
[9] = dose: 12.5 mg/kg/injection, schedule: Q01DX009 (ip), vehicle: saline with Tween-80
[10] = dose: 25.0 mg/kg/injection, schedule: Q01DX009 (ip), vehicle: saline with Tween-80
[11] = dose: 50.0 mg/kg/injection, schedule: Q01DX009 (ip), vehicle: saline with Tween-80
[12] = dose: 100.0 mg/kg/injection, schedule: Q01DX009 (ip), vehicle: saline with Tween-80
[13] = dose: 100.0 mg/kg/injection, schedule: Q04DX003 (ip), vehicle: saline with Tween-80
[14] = dose: 200.0 mg/kg/injection, schedule: Q01DX009 (ip), vehicle: saline with Tween-80
[15] = dose: 100.0 mg/kg/injection, schedule: Q04DX003 (ip), vehicle: saline
[16] = dose: 200.0 mg/kg/injection, schedule: Q04DX003 (ip), vehicle: saline

Measured: T/C

CC(O)C(NC(=O)OCc1ccccc1)C(=O)NCC(N)=O (stereo unspecified) (Cbz-[ξT]-Gly-NH2)
inactive: [1] 101 % of control | [2] 115 % of control | [3] 101 % of control

CCOC(=O)N1CCc2cc(OC)c(O)cc2C1CC1=CC(=O)C(OC)=CC1=O (stereo unspecified)
inactive: dose: 100.0 mg/kg/injection, schedule: Q04DX002 (ip), vehicle: saline with Tween-80 102 % of control | dose: 200.0 mg/kg/injection, schedule: Q04DX002 (ip), vehicle: saline with Tween-80 100 % of control | dose: 400.0 mg/kg/injection, schedule: Q04DX002 (ip), vehicle: saline with Tween-80 97 % of control

CN1CCN(Cc2oc(CO)cc(=O)c2O)CC1
inactive: dose: 60.0 mg/kg/injection, schedule: Q01DX005 (ip), vehicle: saline 103 % of control | dose: 120.0 mg/kg/injection, schedule: Q01DX005 (ip), vehicle: saline 92 % of control | dose: 240.0 mg/kg/injection, schedule: Q01DX005 (ip), vehicle: saline 104 % of control

c1ccc2c(NCCCCNc3c4ccccc4nc4ccccc34)c3ccccc3nc2c1
inactive: dose: 0.62 mg/kg/injection, schedule: Q## X009 (ip), vehicle: lactic acid 101 % of control | dose: 1.25 mg/kg/injection, schedule: Q## X009 (ip), vehicle: lactic acid 102 % of control | dose: 2.5 mg/kg/injection, schedule: Q## X009 (ip), vehicle: lactic acid 104 % of control | dose: 5.0 mg/kg/injection, schedule: Q## X009 (ip), vehicle: lactic acid 104 % of control | dose: 10.0 mg/kg/injection, schedule: Q## X009 (ip), vehicle: lactic acid 110 % of control

O=C1NC(O)c2cc(F)ccc2O1 (stereo unspecified)
inactive: [4] 104 % of control | [5] 105 % of control and 110 % of control | [6] 111 % of control and 115 % of control | [7] 111 % of control

NC(=O)C1c2ccccc2C=Cc2ccccc21
inactive: [5] 93 % of control | [6] 90 % of control | [7] 93 % of control

N=C(N)c1ccc(N=NNc2ccc(C(=N)N)cc2)cc1
inactive: dose: 12.5 mg/kg/injection, schedule: Q01DX005 (ip), vehicle: Klucel + Tween-80 94 % of control | [8] 96 % of control | dose: 25.0 mg/kg/injection, schedule: Q01DX005 (ip), vehicle: Klucel + Tween-80 98 % of control | dose: 50.0 mg/kg/injection, schedule: Q01DX005 (ip), vehicle: Klucel + Tween-80 100 % of control

CC1=CC[C@@H](Br)C(C)(C)[C@]12CC[C@]1(C)O[C@@H]1C2
inactive: dose: 12.5 mg/kg/injection, schedule: Q01DX005 (ip), vehicle: saline + alcohol 110 % of control | dose: 25.0 mg/kg/injection, schedule: Q01DX005 (ip), vehicle: saline + alcohol 110 % of control | dose: 50.0 mg/kg/injection, schedule: Q01DX005 (ip), vehicle: saline + alcohol 105 % of control | dose: 100.0 mg/kg/injection, schedule: Q01DX005 (ip), vehicle: saline + alcohol 105 % of control

NC(=O)CCSC(N)=S
inactive: [1] 100 % of control | [2] 109 % of control | [3] 100 % of control

CC1(C)CC(C)(OC(=O)c2ccc([N+](=O)[O-])cc2)N=N1 (stereo unspecified)
inactive: dose: 12.5 mg/kg/injection, schedule: Q01DX009 (ip), vehicle: other 102 % of control | dose: 25.0 mg/kg/injection, schedule: Q01DX009 (ip), vehicle: other 97 % of control | dose: 50.0 mg/kg/injection, schedule: Q01DX009 (ip), vehicle: other 102 % of control | dose: 100.0 mg/kg/injection, schedule: Q01DX009 (ip), vehicle: other 100 % of control | dose: 200.0 mg/kg/injection, schedule: Q01DX009 (ip), vehicle: other 101 % of control

Nc1cc(Cl)c(Cl)cc1Cl
inactive: [9] 100 % of control | [10] 95 % of control | [11] 90 % of control

COC(C)C(O)(C(=O)OCC1=CC[N+]2([O-])CCC(O)C12)C(C)(C)O (stereo unspecified)
inactive: dose: 100.0 mg/kg/injection, schedule: Q01DX005 (ip), vehicle: other 111 % of control | [6] 104 % of control | dose: 200.0 mg/kg/injection, schedule: Q01DX005 (ip), vehicle: other 102 % of control | [7] 112 % of control | dose: 400.0 mg/kg/injection, schedule: Q01DX005 (ip), vehicle: saline with Tween-80 107 % of control | dose: 800.0 mg/kg/injection, schedule: Q01DX005 (ip), vehicle: other 111 % of control | dose: 800.0 mg/kg/injection, schedule: Q01DX005 (ip), vehicle: saline with Tween-80 117 % of control | dose: 1600.0 mg/kg/injection, schedule: Q01DX005 (ip), vehicle: saline with Tween-80 112 % of control

CN(C)[C@@H]1C(=O)C(C(=O)NCc2nc3[nH]cnc(=S)c3[nH]2)=C(O)[C@@]2(O)C(=O)C3=C(O)c4c(O)cccc4[C@@](C)(O)[C@H]3C[C@@H]12
inactive: [12] 100 % of control | [13] 95 % of control | [14] 100 % of control | dose: 200.0 mg/kg/injection, schedule: Q04DX003 (ip), vehicle: saline with Tween-80 95 % of control | dose: 400.0 mg/kg/injection, schedule: Q01DX009 (ip), vehicle: saline with Tween-80 110 % of control | dose: 400.0 mg/kg/injection, schedule: Q04DX003 (ip), vehicle: saline with Tween-80 100 % of control

NC(Cc1cccc(F)c1)c1nn[nH]n1 (stereo unspecified)
inactive: dose: 50.0 mg/kg/injection, schedule: Q04DX003 (ip), vehicle: saline with Tween-80 100 % of control | [13] 93 % of control

O=C1c2ccc(Cl)cc2OCCC1CN1CCCCC1 (stereo unspecified)
inactive: [15] 100 % of control | [16] 103 % of control

S=C(Nc1ccccc1)P(C(=S)Nc1ccccc1)C1CCCCC1
inactive: [1] 108 % of control | [2] 101 % of control | [3] 99 % of control

CCOC(=O)C1C2CCC(O2)C1C#N (stereo unspecified)
inactive: dose: 15.0 mg/kg/injection, schedule: Q01DX005 (ip), vehicle: saline with Tween-80 100 % of control | dose: 30.0 mg/kg/injection, schedule: Q01DX005 (ip), vehicle: saline with Tween-80 101 % of control | dose: 60.0 mg/kg/injection, schedule: Q01DX005 (ip), vehicle: saline with Tween-80 93 % of control

O=S1(c2ccccc2)=NC(=S)Nc2ccccc21 (stereo unspecified)
inactive: [11] 111 % of control | [12] 102 % of control | [14] 98 % of control

COc1c(CCl)c2c(c(OC)c1OC)COC2=O
inactive: [11] 100 % of control | [12] 90 % of control | [14] 116 % of control

COc1ccc2c(c1)CC[C@@H]1[C@@H]2CC[C@]2(C)C(=O)/C(=C/C=C/N(C)C)C[C@@H]12
inactive: [8] 90 % of control | [4] 91 % of control | [5] 87 % of control and 89 % of control

O=C(O)C1CC1.[Ag]
inactive: dose: 6.25 mg/kg/injection, schedule: Q01DX009 (ip), vehicle: saline with Tween-80 97 % of control
active: dose: 3.12 mg/kg/injection, schedule: Q01DX009 (ip), vehicle: saline with Tween-80 153 % of control

CN(C)CCCN1c2ccccc2Sc2ccc(C(F)(F)F)cc21
inactive: [9] 123 % of control

Nc1nc(-c2ccccc2)nc(Cl)c1I
inactive: [10] 103 % of control | [11] 105 % of control | [12] 102 % of control | [15] 94 % of control | [14] 105 % of control | [16] 94 % of control | dose: 400.0 mg/kg/injection, schedule: Q04DX003 (ip), vehicle: saline 101 % of control

COc1cc(N)c2ncccc2c1Br
inactive: [1] 100 % of control | [2] 104 % of control | [3] 97 % of control

CCC1(O)CN2CCc3c([nH]c4ccccc34)C(C(=O)OC)(c3cc4c(cc3OC)N(C)C3C(O)(C(=O)OC)C(OC(C)=O)C5(CC)C=CCN6CCC43C65)CC(C2=O)C1O (stereo unspecified)
inactive: dose: 25.0 mg/kg/injection, schedule: Q01DX001 (ip), vehicle: distilled water + Tween-80 107 % of control | dose: 25.0 mg/kg/injection, schedule: Q01DX001 (ip), vehicle: suspension in saline 104 % of control | dose: 50.0 mg/kg/injection, schedule: Q01DX001 (ip), vehicle: suspension in saline 110 % of control | dose: 100.0 mg/kg/injection, schedule: Q01DX001 (ip), vehicle: suspension in saline 120 % of control
active: dose: 200.0 mg/kg/injection, schedule: Q01DX001 (ip), vehicle: distilled water + Tween-80 154 % of control
